Measured values reported in patent US20030144360A1, “Composition and method for modulating BAR/FXR receptor activity” (Allergan Sales, Inc., priority 2001, published 2003).

B1: IBABP IR-1 BAR/FXR response element (dsDNA)
DNA 1: CCTTAAGGTGAATAACCTTGGGGCTCC
DNA 2: GGAGCCCCAAGGTTATTCACCTTAAGG

Legend:
BAR-RXRα complex = target: T1, BAR-RXRα complex (UniProt P19793+Q62735); conditions: cited from earlier work
T1 sequence (Q62735 1-469): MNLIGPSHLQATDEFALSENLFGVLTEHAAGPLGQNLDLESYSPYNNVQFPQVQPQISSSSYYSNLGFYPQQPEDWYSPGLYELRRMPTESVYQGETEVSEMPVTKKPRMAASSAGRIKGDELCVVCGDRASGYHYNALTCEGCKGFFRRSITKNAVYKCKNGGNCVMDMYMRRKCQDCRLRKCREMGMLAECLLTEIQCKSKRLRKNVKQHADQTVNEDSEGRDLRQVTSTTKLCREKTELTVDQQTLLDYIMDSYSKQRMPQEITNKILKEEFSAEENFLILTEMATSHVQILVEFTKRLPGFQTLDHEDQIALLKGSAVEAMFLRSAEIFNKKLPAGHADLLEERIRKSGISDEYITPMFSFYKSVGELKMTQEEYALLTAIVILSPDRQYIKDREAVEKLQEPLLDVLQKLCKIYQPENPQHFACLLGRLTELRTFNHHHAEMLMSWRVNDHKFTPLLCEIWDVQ
T1 sequence (P19793 1-462): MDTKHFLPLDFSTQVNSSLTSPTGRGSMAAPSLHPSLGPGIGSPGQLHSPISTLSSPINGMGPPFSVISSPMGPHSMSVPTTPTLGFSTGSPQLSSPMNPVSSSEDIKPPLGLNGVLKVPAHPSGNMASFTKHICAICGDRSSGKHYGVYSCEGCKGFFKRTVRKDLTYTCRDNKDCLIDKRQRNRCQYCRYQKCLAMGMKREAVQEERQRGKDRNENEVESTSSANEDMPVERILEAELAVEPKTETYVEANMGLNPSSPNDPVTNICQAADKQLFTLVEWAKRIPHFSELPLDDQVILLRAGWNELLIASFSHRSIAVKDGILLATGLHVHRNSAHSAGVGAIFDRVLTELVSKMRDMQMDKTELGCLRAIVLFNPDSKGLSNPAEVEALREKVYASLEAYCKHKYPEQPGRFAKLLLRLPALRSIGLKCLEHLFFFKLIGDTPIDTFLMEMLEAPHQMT

[1] = test system: other nuclear hormone receptors; conditions: cited from earlier work
GAL-L-hRXRa = target: T2, GAL-L-hRXRa (Homo sapiens, UniProt P19793); assay: Co-transfection luciferase assay, MH100 × 4 reporter, GAL-L-hRXRa alone; conditions: 50 μM CDCA
T2 sequence (P19793 203-462): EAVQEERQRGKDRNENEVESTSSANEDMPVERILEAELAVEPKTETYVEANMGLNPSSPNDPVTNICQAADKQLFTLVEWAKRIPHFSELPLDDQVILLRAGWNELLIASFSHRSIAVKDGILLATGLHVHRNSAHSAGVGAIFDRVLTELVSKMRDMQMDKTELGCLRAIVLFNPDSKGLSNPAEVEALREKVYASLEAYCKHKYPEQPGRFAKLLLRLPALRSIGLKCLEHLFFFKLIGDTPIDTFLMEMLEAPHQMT
Protocol: CV-1 African Green Monkey cells were grown in Dulbecco's Modified Eagle's medium supplemented with 10% resin-charcoal stripped fetal bovine serum (FBS), 50 U/ml penicillin G and 50 μg/ml streptomycin sulfate (DMEM-FBS) at 37° C. in 5% CO2. One day prior to transfection, cells were plated to 50-80% confluence using phenol red-free DMEM-FBS. Cells were transiently transfected by lipofection as described in Forman et al., 81 Cell 687 (1995). Liposomes (N-[1-(2,3-dioleoyloxy)propyl]-N,N,N-ammonium methyl sulfate, sold by Boehringer Mannheim under the name DOTAP) were formed according to the manufacturer's instructions. The liposomes contained reporter gene constructs (300 ng/10^5 cells); cytomegalovirus driven expression vectors (25 ng/10^5 cells) were added as indicated along with CMX-Bgal (500 ng/10^5 cells) as an internal control. After 2 hours the liposomes were removed and replaced with fresh media. Cells were incubated for approximately 40 hours with phenol red-free DMEM-FBS containing the indicated compounds. After exposure to the specified ligand, the cells were harvested.
The harvested cells were assayed for the presence of luciferase activity. Cells were lysed in 0.1 M KPO4 (pH 7.8), 1.0% TRITON® X-100, 1.0 mM dithiolthreitol (DTT) and 2 mM ethylenediamine tetracetic acid (EDTA). Luciferase activity was measured by reaction of the cell lysates with luciferin in a reaction buffer comprising: 20 mM tricine, 1.07 mM Mg(CO3)4-Mg(OH)2-5H2O, 2.67 mM MgSO4.7H2O, 0.1 mM EDTA, 0.5 mM Sodium luciferin, 0.15 mg/ml Coenzyme A, 5 mM DTT, and 0.5 mM adenosine triphosphate (ATP). Resulting chemiluminescence was measured in a luminometer. […] All points were assayed in triplicate and varied by less than 15%. Each experiment was repeated three or more times with similar results.
As shown below, in most cases hRXRop was recombinantly coexpressed with one other of the indicated receptor constructs, so as to permit the formation of hetero-or homodimers containing hRXRop.
Expression of the luciferase reporter gene product was detected and quantified as described above.

[2] = target: BAR/FXR:RXR heterodimer (CV-1 cells) (/ Homo sapiens, UniProt Q62735;P19793 SEQ:1-469,SEQ:1-462); assay: cell_activity; CV-1, 100 uM CDCA; text gives IBABP IR-1 reporter, FIG. 1A legend gives EcREx6; conditions: label: 32P (gel shift)

| Molecule | activation of the BAR-RXR complex (BAR-RXRα complex) | other results |
| --- | --- | --- |
| CC(C)=CCCC(C)=CCCC(C)=CC(=O)O [farnesoic acid] | somewhat less strongly |  |
| CC(C)CCC[C@@H](C)[C@H]1CC[C@H]2[C@@H]3CC=C4C[C@@H](O)CC[C@]4(C)[C@H]3CC[C@]12C [cholesterol] | did not activate |  |
| COC(=O)/C=C(\C)CC/C=C(\C)CC[C@H]1OC1(C)C [JH III, juvenile hormone III] | activated | activation of BAR/FXR or RXR alone (BAR-RXRα complex; either receptor alone): does not activate; activation of other nuclear hormone receptors [1]: failed to activate |
| CC(C)=CCC/C(C)=C/CC/C(C)=C/CC/C(C)=C/CO [geranylgeraniol] | somewhat less strongly |  |
| CC(C)=CCC/C(C)=C/CC/C(C)=C/CC/C=C(\C)CC/C=C(\C)CCC=C(C)C [squalene] | did not activate |  |
| CC(C)=CCC/C(C)=C/CO [geraniol] | did not activate |  |
| CC(C)=CCCC(C)=CCCC(C)=CC=O [farnesal] | somewhat less strongly |  |
| C[C@H](CCC(=O)O)[C@H]1CC[C@H]2[C@@H]3[C@H](O)C[C@@H]4C[C@H](O)CC[C@]4(C)[C@H]3CC[C@]12C [CDCA, chenodeoxycholic acid, reference compound] |  | Reporter Activity (GAL-L-hRXRa): 0.38 |
| B1 |  | activity [2]: ~200 fold activation |
